Data on four molecules can be found in ChEMBL document CHEMBL3997819, “Synthesis and biological evaluation of heterocyclic analogues of pregnenolone as novel anti-osteoporotic agents” (2017).

Calls of active or inactive are those of the source. The rule behind the calls is not given here.

For experiment [1], the system named is Calvarial osteoblast. Briefly: Antiosteoporotic activity in mouse calvarial osteoblasts assessed as enhancement in ALP activity at 1 pM to 1 uM after 48 hrs by PNPP substrate-based spectrophotometric method relative to control. The format is functional, cell-based.
The subject of experiment [2] is Calvarial osteoblast. The experiment is described as follows: Antiosteoporotic activity in mouse calvarial osteoblasts assessed as enhancement in ALP activity at 1 pM after 48 hrs by PNPP substrate-based spectrophotometric method relative to control. In kind it is functional.
Experiment [3] concerns Calvarial osteoblast. The experiment is described as follows: Antiosteoporotic activity in mouse calvarial osteoblasts assessed as enhancement in ALP activity at 1 nM to 1 uM after 48 hrs by PNPP substrate-based spectrophotometric method relative to control. In kind it is functional, cell-based.
The subject of experiment [4] is Calvarial osteoblast. The experiment is described as follows: Antiosteoporotic activity in mouse calvarial osteoblasts assessed as enhancement in ALP activity at 100 pM after 48 hrs by PNPP substrate-based spectrophotometric method relative to control. The format is functional.
In experiment [5] the test system is Calvarial osteoblast. The experiment is described as follows: Antiosteoporotic activity in mouse calvarial osteoblasts assessed as upregulation of OCN mRNA levels at 1 pM measured at 24 hrs by real-time quantitative PCR method relative to control. In kind it is functional.
Experiment [6] deals with Calvarial osteoblast. Briefly: Antiosteoporotic activity in mouse calvarial osteoblasts assessed as upregulation of Runx-2 mRNA levels at 1 pM measured at 24 hrs by real-time quantitative PCR method relative to control. The format is functional.
In experiment [7] the test system is Calvarial osteoblast. Briefly: Antiosteoporotic activity in mouse calvarial osteoblasts assessed as upregulation of BMP-2 mRNA levels at 1 pM measured at 24 hrs by real-time quantitative PCR method relative to control. In kind it is functional.
Experiment [8] deals with Calvarial osteoblast. The experiment is described as follows: Antiosteoporotic activity in mouse calvarial osteoblasts assessed as increase in mineral nodule formation at 1 to 100 pM after 21 days by alizarin red-S dye-based optical densitometry relative to control. The format is functional, cell-based.

Consider `C/C(=N\O)[C@H]1CC[C@H]2[C@@H]3CC=C4C[C@@H](O)CC[C@]4(C)[C@H]3CC[C@]12C`, for which the outcome in the experiment on Calvarial osteoblast [1] was Active.
Consider `C[C@]12CC[C@H]3[C@@H](CC=C4C[C@@H](O)CC[C@@]43C)[C@@H]1CC[C@@H]2c1ccc2ccccc2n1`, for which the Activity came to 100% in the experiment on Calvarial osteoblast [2] and 85% in the experiment with Calvarial osteoblast [4]. Also, the outcome in the experiment with Calvarial osteoblast [3] and in the experiment with Calvarial osteoblast [8] was Active. Also, the “fold change (FC)” value with Calvarial osteoblast [5] was found to be 3; in the experiment with Calvarial osteoblast [6], 1.5; in the experiment on Calvarial osteoblast [7], 2.
Consider `CC(=O)O[C@H]1CC[C@@]2(C)C(=CC[C@H]3[C@@H]4CC[C@H](C(C)=O)[C@@]4(C)CC[C@@H]32)C1`, for which, in the experiment on Calvarial osteoblast [1], the result was Active.
On the same count and under the same terms, in the case of `C[C@]12CC[C@H]3[C@@H](CC=C4C[C@@H](O)CC[C@@]43C)[C@@H]1CC[C@@H]2c1ccc2cc(Br)cc(Br)c2n1` it was “Active”.
